Ends that are not written are not given here.
Tested on: microorganisms
Test: Morphology, biofilm and growth disruption by peptides (Table 5)
Type: cell-based
Set-up: key: A: Peptide aggregates; B: Less hyphal formation; Clumps; Diffuse clumps and small polyps; F: Diffuse growth; H: Thin; I: Growth inhibition; Microcolony formation; Rippled; Small polyps; Thick; W: Halo formation on top, microlonies on bottom
Description: In certain embodiments peptides that induce alterations in phenotype or other biological activities can also be used as antimicrobial effector moieties.

MGIIAGIIKVIKSLIEQFTGK [PF-007]
Organism, effect (E. coli): E. coli (A)
Organism, effect (E. faecalis): E. faecalis (A)
Organism, effect (M. luteus): M. luteus (A)
Organism, effect (MRSA): MRSA (R)
Organism, effect (S. epidermidis): S. epidermidis (A)

PF-335 (AAYPIEDWSDWYEDFFIMLSNI; Peptide with targeting and/or antimicrobial activity)
Organism, effect (B. subtilis): B. subtilis (C)
Organism, effect (S. epidermidis): S. epidermidis (C)

PF-407 (KPKNKKEKTVISYEKLLSMY; Peptide with targeting and/or antimicrobial activity)
Organism, effect (E. faecalis): E. faecalis (R)
Organism, effect (MRSA): MRSA (C)
Organism, effect (S. epidermidis): S. epidermidis (M)
Organism, effect (S. pneumoniae): S. pneumoniae (R)

PF-076 (LYQYELLSKEEYLKCTLIINQRRNEQK; Peptide with targeting and/or antimicrobial activity)
Organism, effect (C. jeikeium): C. jeikeium (A)
Organism, effect (M. luteus): M. luteus (A)
Organism, effect (MRSA): MRSA (R)
Organism, effect (S. epidermidis): S. epidermidis (S)

PF-449 (MPTTKSKQKGWTNTKKASNTQ; Peptide with targeting and/or antimicrobial activity)
Organism, effect (morphology, biofilm and growth disruption) (S. pneumoniae): S. pneumoniae (H)

PF-310 (GVALIGTILVPLLSGLFG; Peptide with targeting and/or antimicrobial activity)
Organism, effect (S. epidermidis): S. epidermidis (C)

PF-220 (VDPADDGTRHIRPEDGDPIEIDE; Peptide with targeting and/or antimicrobial activity)
Organism, effect (S. pneumoniae): S. pneumoniae (H)

PF-432 (FNGDSEFFLCIAF; Peptide with targeting and/or antimicrobial activity)
Organism, effect (morphology, biofilm and growth disruption) (C. jejuni): C. jejuni (D)
Organism, effect (morphology, biofilm and growth disruption) (E. coli): E. coli (R)
Organism, effect (morphology, biofilm and growth disruption) (E. faecalis): E. faecalis (D)
Organism, effect (morphology, biofilm and growth disruption) (MRSA): MRSA (M)
Organism, effect (morphology, biofilm and growth disruption) (P. aeruginosa): P. aeruginosa (A)
Organism, effect (morphology, biofilm and growth disruption) (S. epidermidis): S. epidermidis (M)
Organism, effect (morphology, biofilm and growth disruption) (S. pneumoniae): S. pneumoniae (D)

RRGCTERLRRMARRNAWDLYAEHFY [PF-148]
Organism, effect (B. subtilis): B. subtilis (I)
Organism, effect (C. albicans): C. albicans (B)
Organism, effect (C. jeikeium): C. jeikeium (H)
Organism, effect (C. jejuni): C. jejuni (H)
Organism, effect (M. luteus): M. luteus (A)
Organism, effect (MRSA): MRSA (C)
Organism, effect (S. epidermidis): S. epidermidis (D)
Organism, effect (S. pneumoniae): S. pneumoniae (R)

PF-411 (WVAVAILLNIALQTQLT; Peptide with targeting and/or antimicrobial activity)
Organism, effect (C. jejuni): C. jejuni (D)
Organism, effect (E. coli): E. coli (C)
Organism, effect (E. faecalis): E. faecalis (D)
Organism, effect (MRSA): MRSA (D)
Organism, effect (P. aeruginosa): P. aeruginosa (A)
Organism, effect (S. epidermidis): S. epidermidis (C)
Organism, effect (S. pneumoniae): S. pneumoniae (D)

PF-534 (KYFHLFYHNIIHYSKQHLSLKVDFKN-NH2)
Organism, effect (morphology, biofilm and growth disruption) (E. coli): E. coli (R)
Organism, effect (morphology, biofilm and growth disruption) (E. faecalis): E. faecalis (C)
Organism, effect (morphology, biofilm and growth disruption) (MRSA): MRSA (C)
Organism, effect (morphology, biofilm and growth disruption) (S. epidermidis): S. epidermidis (C)
Organism, effect (morphology, biofilm and growth disruption) (S. pneumoniae): S. pneumoniae (R)

PF-250 (SEDIFGRLANEKANGLEELRKIRLKQ; Peptide with targeting and/or antimicrobial activity)
Organism, effect (M. luteus): M. luteus (T)

PF-290 (MVHDMTNGTLIIVKH; Peptide with targeting and/or antimicrobial activity)
Organism, effect (S. epidermidis): S. epidermidis (C)

PF-565 (RAEAEAQRQAEADAKRKAEEAARL; Peptide with targeting and/or antimicrobial activity)
Organism, effect (morphology, biofilm and growth disruption) (B. subtilis): B. subtilis (D)
Organism, effect (morphology, biofilm and growth disruption) (MRSA): MRSA (C)

PF-419 (VVTGKVGSLPQIK; Peptide with targeting and/or antimicrobial activity)
Organism, effect (S. pneumoniae): S. pneumoniae (H)

GIVLIGLKLIPLLANVLR [PF-322]
Organism, effect (B. subtilis): B. subtilis (H)
Organism, effect (S. epidermidis): S. epidermidis (C)

PF-318 (MGRHLWNPSYFVATVSENTEEQIRKYINNQKKQVK; Peptide with targeting and/or antimicrobial activity)
Organism, effect (B. subtilis): B. subtilis (C)
Organism, effect (S. epidermidis): S. epidermidis (C)

YIQFHLNQQPRPKVKKIKIFL-NH2 [PF-531]
Organism, effect (morphology, biofilm and growth disruption) (E. coli): E. coli (M)
Organism, effect (morphology, biofilm and growth disruption) (P. aeruginosa): P. aeruginosa (I)
Organism, effect (morphology, biofilm and growth disruption) (S. epidermidis): S. epidermidis (I)
Organism, effect (morphology, biofilm and growth disruption) (S. pneumoniae): S. pneumoniae (C)

FQKPFTGEEVEDFQDDDEIPTII [PF-437]
Organism, effect (morphology, biofilm and growth disruption) (S. pneumoniae): S. pneumoniae (I)

PF-001 (chain 1 MNNWIIVAQLSVTVINEIIDIMKEKQKGGK; chain 2 MNNWIIVAQLSVTVINEIIDIMKEKQKGGK; Peptide with targeting and/or antimicrobial activity)
Organism, effect (C. jeikeium): C. jeikeium (D)
Organism, effect (M. luteus): M. luteus (C)
Organism, effect (MRSA): MRSA (R)
Organism, effect (S. epidermidis): S. epidermidis (C)

PF-032 (RIVVPAHQSNMASTPNLSITP; Peptide with targeting and/or antimicrobial activity)
Organism, effect (C. jeikeium): C. jeikeium (C)
Organism, effect (S. epidermidis): S. epidermidis (S)

PF-582 (NLKTIEKECPFCNNKMDIKLKD; Peptide with targeting and/or antimicrobial activity)
Organism, effect (morphology, biofilm and growth disruption) (E. faecalis): E. faecalis (A)

PF-618 (KLNTLNKKDNPSLNDQDKNAVLNLLALAK; Peptide with targeting and/or antimicrobial activity)
Organism, effect (morphology, biofilm and growth disruption) (E. faecalis): E. faecalis (H)
Organism, effect (morphology, biofilm and growth disruption) (S. pneumoniae): S. pneumoniae (I)

PF-468 (EDNKDKKDKKDK; Peptide with targeting and/or antimicrobial activity)
Organism, effect (morphology, biofilm and growth disruption) (S. pneumoniae): S. pneumoniae (H)

PF-670 (chain 1 TVIVAPMHSGV; chain 2 TVIVAPMHSGV; Peptide with targeting and/or antimicrobial activity)
Organism, effect (morphology, biofilm and growth disruption) (B. subtilis): B. subtilis (H)
Organism, effect (morphology, biofilm and growth disruption) (S. pneumoniae): S. pneumoniae (H)

PF-410 (FALELIALCRNLFIVYFP; Peptide with targeting and/or antimicrobial activity)
Organism, effect (E. coli): E. coli (S)
Organism, effect (E. faecalis): E. faecalis (C)
Organism, effect (MRSA): MRSA (M)
Organism, effect (S. epidermidis): S. epidermidis (C)

PF-532 (KFIYKYKLSFIIYKILIQTLTMELNK; Peptide with targeting and/or antimicrobial activity)
Organism, effect (morphology, biofilm and growth disruption) (E. coli): E. coli (C)
Organism, effect (morphology, biofilm and growth disruption) (E. faecalis): E. faecalis (C)
Organism, effect (morphology, biofilm and growth disruption) (MRSA): MRSA (C)
Organism, effect (morphology, biofilm and growth disruption) (S. pneumoniae): S. pneumoniae (C)

LGLTAGVAYAAQPTNQPTNQPTNQPTNQPTNQPTNQPRW-NH2 [PF-520]
Organism, effect (morphology, biofilm and growth disruption) (S. pneumoniae): S. pneumoniae (M)

PF-485 (KNSMSRSIALID; Peptide with targeting and/or antimicrobial activity)
Organism, effect (morphology, biofilm and growth disruption) (S. pneumoniae): S. pneumoniae (A)

PF-574 (LVKSGKLESPYEHSEHLTLSQEKGLE; Peptide with targeting and/or antimicrobial activity)
Organism, effect (morphology, biofilm and growth disruption) (B. subtilis): B. subtilis (D)
